Legend:
[1] = system: ADP induced platelet aggregation of rats; test: Platelet aggregation inhibition test (ADP induced, PRP of dosed rats); type: in vivo, SD rats; settings: ADP 5 μmol/L
Experimental: (§1) The same volume of saline was given to the Blank control group. The rats were administered once a day for 7 days.
Platelet aggregation inhibition test: 1 h after 7 days of administration to the rats of the groups, the rats were hypnotized according to the above method, a tube was inserted into the common carotid artery to collect blood, the blood was added 3.8% sodium citrate in a ratio of 1:9 to become anticoagulant, when it was centrifuged for 5 minutes at 500 rpm, the upper portion of the plasma was taken to be the platelet-rich plasma (PRP), the remaining part was centrifuged again for 15 minutes at 3,500 rpm, the supernatant was platelet poor plasma (the PPP), the number of platelet of PRP was counted with platelet counting instrument, the number of platelet of PRP was adjusted with PPP to about […]. The temperature of the sample tube was kept at 37° C. for 3 minutes, then 5 μL ADP was added (final concentration 5 μmol/L), stirring speed of the stirrer was 500 r/min, the space between the rows of the movement of the recording pen was recorded after adding, and the aggregation rate was calculated according to the following formula: Aggregation rate(%)=the itinerary of adding ADP×100%/0˜100% of the itinerary

[2] = system: thrombosis of rats; test: Artery-vein shunt thrombosis in rats (thrombus formation in vivo); set-up: species or system SD rats; settings: compositions 3 g/kg, aspirin 0.0044 g/kg
Experimental: as §1
Experiments of thrombus formation, in vivo: 1 h after 7 days of administration, the rats of the groups were hypnotized through intraperitoneal injection with 0.8% sodium pentobarbital, with a dose of 40 mg/kg referring to the artery-vein shunt thrombosis method [Zhang Jun Tian. Modern pharmacology experimental methods. Beijing: Beijing Medical University Press, 1998; 1216-1217], right common carotid artery and left external jugular vein were separated. Three sections of polyethylene plastic pipe were taken, the diameter of the middle section was 2 mm, the length was about 8.5 cm, the diameter of the two plastic pipe of the two ends were 1.5 mm, the length were 10 cm respectively. A No 4 operation silk thread that was weighed previously with a length of about 7 cm was placed in the plastic pipe in the middle section, wherein one end of the thread with the length of 0.5 cm was exposed to the pipe to fix the position, and a silk thread with a length of 6.5 cm was kept in the pipe, the polyethylene plastic pipe was filled with heparin solution, one end of the plastic tube was inserted into the left external jugular vein, the other end of the plastic tube was inserted into the right common carotid artery, then the bloodstream was opened immediately. […]

[3] = system: plasma NPY, β-EP; test: Plasma NPY, β-EP of VaD rats (RIA); type: in vivo, SD rats; settings: 2 months of administration, compositions 3 g/kg, Huperzine 0.00006 g/kg, Tanakan 0.02 g/kg
Experimental: (§2) The sham group and the model group were given gavages of distilled water of the same volume. 2 months, 3 months after the models were created (1 month and 2 months after the administration), the time of the duration of MORRIS water maze were measured. After the last measurement, blood was taken from abdomens aorta, the brain was taken quickly, and the left hemisphere was solidified with liquid nitrogen. In ice bath, with 0.15M HCLO4 homogenates (1 ml was added for 100 mg brain weight) 14000×g 4° C., centrifuged for 20 min, the supernatant was taken, filtered with 0.22 μm membrane, 10 μl was fed into the auto sampler, the content of Ach was determined using HPLC; right hemisphere, 4 for each group, were solidified with formalin, dehydrated, embedded, sliced, HE dyed for pathological examination, homogenates of six brain tissue, AchE, SOD activity and MDA content (colorimetric method) were measured; Indicators such as neuropeptide Y, β-EP in plasma were determined (RIA). The results were analyzed statistically (t test).

[4] = system: reserpine induced acquired memory disorder model mice; test: Reserpine induced acquired memory disorder model mice, jumping platform test; type: in vivo, ICR mice; settings: reserpine 0.5 mg/kg mice; compositions 4 g/kg, Huperzine 0.00008 g/kg, Tanakan 0.03 g/kg, 15 days
Experimental: (§3) Experimental grouping was the same as that of test example 5.
The animals were intragastric administered once a day at a dose of 20 mL/kg, distilled water was given to the blank control group and the model group, one time a day, lasted for 15 days. After the administration on the 14th day, saline was given immediately to the mice of the blank control group through back and neck subcutaneous injection in a volume of 10 ml/kg, the rest animals were given reserpine hydrochloride (0.5 mg/kg) through back and neck subcutaneous injection. 60 minutes after the injection, the mice were placed on the jumping program automatic controller, to adapt for 3 minutes, then power on, the mice were stimulated by electric shock for 5 times, when the mice were stimulated, they jump to the diving platform to avoid electric shock, trained 5 minutes to obtain memory. 60 minutes after the administration on the 15th day, the animals were placed on the jumping program automatic controller, the number of errors and the incubation period of mice within 5 minutes were determined. The results were analyzed statistically (t test).

[5] = system: VaD rats; test: MORRIS water maze in VaD rats (permanent ligation of bilateral common carotid artery); type: in vivo, SD rats
Experimental: as §2

[6] = system: SOD, MDA of brain tissue; test: Activity of SOD and content of MDA in the brains of VaD rats; type: in vivo, SD rats; settings: 2 months of administration, compositions 3 g/kg, Huperzine 0.00006 g/kg, Tanakan 0.02 g/kg
Experimental: as §2

[7] = system: ischemic reperfusion and D-galactose induced learning and memory impairment mice; test: MORRIS water maze in mice with ischemic reperfusion and subcutaneous D-galactose induced learning and memory impairment; type: in vivo, ICR mice; settings: 8 weeks
Experimental: (§4) The mice were anaesthetized with chloral hydrate, incisions were made in the necks, ischemia and reperfusion surgery was applied: bilateral common carotid arteries were separated, were clipped by bulldog clamp for 20 minutes, loosened for 2 minutes, then were clipped again for 20 minutes then loosened, at the same time, the tails of the mice were cut, 0.5 mL blood was collected, repeated cerebral ischemia-reperfusion injury was formed, sutured the wounds of the rats then fed them in cages. 7 days after the operation, D-galactose (100 mg/kg, 10 mL/kg) was given to the mice through subcutaneous injection on the back, and simultaneously, the mice were intragastric administered (20 mL/kg) once a day, lasted for 8 weeks; for the sham group, common carotid arteries were separated without clipping, the same volume of saline was injected through subcutaneous injection on the back; for D-galactose group, common carotid arteries were separated without clipping, D-galactose (100 mg/kg, 10 mL/kg) was injected through subcutaneous injection on the back; the ischemia reperfusion group was received an ischemia reperfusion operation, the same volume of saline was injected through subcutaneous injection on the back. The sham group, complex model group, D-galactose group were given gavages of distilled water of the same volume.
(§5) 8 weeks after the administration, the mice were trained for 3 days in the MRRIS water maze, two times a day, the learning and memory behavior were determined on the 4th day, on the 5th day, the heads were cut to take the brains, the brains were formulated into 10% homogenates with saline, the activities of AchE, SOD, GSH-Px, the contents of biochemical indicators such as MDA, NO in the brain tissues were determined (colorimetry). The results were analyzed statistically (t test)

[8] = system: sodium nitrite induced consolidate memory disorder mice; test: Sodium nitrite induced consolidate memory disorder model mice, jumping platform test; type: in vivo, ICR mice; settings: sodium nitrite 120 mg/kg mice; compositions 4 g/kg, Huperzine 0.00008 g/kg, Tanakan 0.03 g/kg, 15 days
Experimental: as §3
The animals were intragastric administered once a day at a dose of 20 mL/kg, distilled water was given to the animals of blank control group and model group, one time a day, lasted for 15 days. 60 minutes after the administration on the 14th day, the mice were placed on the jumping program automatic controller, to train for 5 minutes, and the mice were stimulated by electric shock for 5 times. After the treatment, saline was given immediately to the mice of comparative group through back and neck subcutaneous injection in a volume of 10 ml/kg, sodium nitrite (120 mg/kg) were injected to the rest of the animals. 60 minutes after the administration on the 15th day, the animals of the groups were placed on the jumping program automatic controller, the number of errors and the incubation period of mice within 5 minutes were determined. The results were analyzed statistically (t test).

[9] = system: Ach in brains of VaD rats; test: Content of Ach in brains of VaD rats (HPLC); type: in vivo, SD rats; settings: 2 months of administration, compositions 3 g/kg, Huperzine 0.00006 g/kg, Tanakan 0.02 g/kg
Experimental: Mobile phase: Na2HPO4 (100 mmol/L), TMACl (0.5 mmol/L), OSA (2.0 mmo/L), MB reagent (0.005% v/v), diluted with redistilled water, 85% PH was adjusted to8.00 by H3PO4, filtered by 0.22 μm aqueous membrane.
Chromatographic conditions: ESA582 type binary pump system, ESA ACH-3 column (150×3 mm 5 μm I.D.), former ESA immobilized enzyme reactor before columns (ESA ACH-SPR, 3 cm), flow rate, 0.35 mL/min, column temperature, 35° C.
Test conditions: 5600 A electrochemical detector; 5040 type solid porous electrode (platinum working electrode, a solid state palladium reference electrode) potential: +300 mV.
The results were analyzed statistically (t test).

[10] = system: SOD, GSH-Px, MDA, NO of brain tissue; test: Activities of SOD, GSH-Px and contents of MDA, NO of brain tissue (ischemia-reperfusion + D-galactose mice); type: in vivo, ICR mice; settings: 8 weeks, compositions 4 g/kg, Huperzine 0.00008 g/kg, Tanakan 0.03 g/kg
Experimental: as §4, §5

[11] = system: scopolamine hydrobromide induced acquired memory disorder model mice; test: Scopolamine hydrobromide induced acquired memory disorder model mice, jumping platform test; type: in vivo, ICR mice; settings: scopolamine 6 mg/kg mice; compositions 4 g/kg, Huperzine 0.00008 g/kg, Tanakan 0.03 g/kg, 15 days
Experimental: The animals were intragastric administered once a day at a dose of 20 mL/kg, distilled water was given to blank control group and model group, one time a day, lasted for 15 days, 50 minutes after the administration on the 14th day, saline was given to the mice of blank control group through intraperitoneal injection in a volume of 10 ml/kg, the rest animals were given scopolamine through injection (6 mg/kg). 10 minutes later, the mice were placed on the jumping program automatic controller, to adapt for 3 minutes, then power on, the mice were stimulated by electric shock for 5 times, when the mice were stimulated, they jump to the diving platform to avoid electric shock, trained 5 minutes to obtain memory. 60 minutes after the administration on the 15th day, the animals were placed on the jumping program automatic controller, the number of times that the mice left the jump platform and received electric shock and the time of occurrence (the incubation period) were determined (number of errors). The results were analyzed statistically (t test).

[12] = system: hippocampal pyramidal cell; test: Pathological examination of hippocampus of VaD rats (HE); type: in vivo, SD rats; settings: 2 months of administration
Experimental: as §2

[13] = ischemia-reperfusion + D-galactose mice, compositions 4 g/kg, Huperzine 0.00008 g/kg, Tanakan 0.03 g/kg

Structure (SMILES): CC(=O)Oc1ccccc1C(=O)O [Aspirin]
- Platelet aggregation ([1]; rats dosed 7 days (compositions 3 g/kg, aspirin 0.0044 g/kg), PRP): 23.27 ± 3.06 %
- aggregation inhibition rate ([1]; rats dosed 7 days, versus control group): 49.57%
- inhibition at 4.4 mg/kg ([2]; Rattus norvegicus, 168 h, 7 days, versus control group, read-out: Inhibition rate (thrombosis)): 30.9%
- Wet weights of thrombus ([2]; once a day 7 days, artery-vein shunt 20 minutes): 0.056 ± 0.011 g

Structure (SMILES): C/C=C1\[C@H]2C=C(C)C[C@]1(N)c1ccc(=O)[nH]c1C2 [Huperzine, huperzine A]
- NPγ [3]: 847.7 ± 189.1 pg/mL
- β-EP [3]: 1032.9 ± 109.5 pg/mL
- number of errors Within 5 min [4]: 0.6 ± 0.9
- the incubation period Within 5 min [4]: 243.1 ± 38.4 s
- time of duration in MORRIS water maze, 2 months after the model was created ([5]; 1 month of administration, compositions 3 g/kg, Huperzine 0.00006 g/kg, Tanakan 0.02 g/kg): 24.6 ± 19.0 s
- time of duration in MORRIS water maze, 3 months after the model was created ([5]; 2 months of administration, compositions 3 g/kg, Huperzine 0.00006 g/kg, Tanakan 0.02 g/kg): 9.0 ± 5.2 s
- time of duration in MORRIS water maze, 1 month after the model was created ([5]; before administration): 58.6 ± 26.6 s
- MDA [6]: 2.194 ± 0.251 μmol/mgprot
- SOD [6]: 51.7 ± 9.6 U/mgprot
- Length of path (MORRIS water maze) [7, 13]: 355.8 ± 234.1 cm
- Time of duration (MORRIS water maze) [7, 13]: 21.7 ± 14.6 s
- Search strategy (MORRIS water maze) ([7]; score: straight line type 1 point, tendency type 2, edge type 3, random type 4, mice): 2.4 ± 1.0 points
- The incubation time Within 5 min [8]: 229.1 ± 94.6 s
- number of errors Within 5 min [8]: 0.5 ± 0.7
- Ach [9]: 1992.6 ± 590.0 ng/g wet weight of brain tissue
- GSH-Px [10]: 28.58 ± 2.87 U/mgprot
- MDA [10]: 4.651 ± 0.832 nmol/mgprot
- NO [10]: 1.442 ± 0.295 nmol/mgprot
- SOD [10]: 159.8 ± 21.2 U/mgprot
- number of errors Within 5 minutes [11]: 0.6 ± 0.6
- the incubation period Within 5 minutes [11]: 281.6 ± 39.4 s
- Pathological examination: arrangement of the hippocampal pyramidal cells [12]: slightly loose

— patent US10967023B2, “Preparation of a chinese medicinal composition including ginseng, ginkgo leaf and stigma croci” (priority 2014, dated 2021)
